Results: paper PMC11362529, “Exploring the neuroprotective potential of Nrf2-pathway activators against annonacin toxicity” (Scientific Reports, 2024)

How the values were obtained:
Type in all cases: cell-based, human
NQO1 = NQO1 mRNA by RT-qPCR; details: 48 h
Method: LUHMES cells were seeded on PLO/FN coated 6-well microplates and the pharmacological treatments were performed as previously explained. The cells were washed in HBSS, prior to being collected for mRNA isolation (RNeasy® Plus Mini Kit, Qiagen, Venlo, Netherlands), following the manufacturer’s instructions. The mRNA concentrations were determined on a Nano-Drop 2000c (Thermo Fisher Scientific) and 1 µg of mRNA was reverse-transcribed into cDNA with the iScript™ Reverse Transcription Supermix for RT-qPCR Kit (Bio-Rad) on a thermal cycler (SensoQuest, Göttingen, Germany). Real-time PCR was performed using SYBR™ Select Master Mix for CFX (Thermo Fisher Scientific) with 30 ng cDNA and 0.4 µM of primers against the respective target genes (Supplementary Table S3), in a 20 µl total volume, on a CFX96 Touch™ Real-Time Cycler (Bio-Rad). The relative expression of mRNA was calculated using the CFX Manager software (ΔΔCt method) from Bio-Rad, and the Ct values of the target-genes were normalized to the reference genes RPL22 and UBQLN1. The data were reported as fold change relative to the control (DMSO-treated) condition.

LUHMES cells = test: Neurite arborization analysis (Tuj-1 immunofluorescence); details: 48 h
Method: Cells were seeded in differentiation medium, onto 24-well microplates containing PLO/FN coated 13 mm Ø coverslips, and submitted to the described pharmacological treatments for 48 h. After this period, the medium was removed and cells were washed once with warm HBSS, and fixed with 4% PFA (paraformaldehyde) in PBS, for 20 min at RT (room temperature). After fixation, cells were washed twice with PBS and permeabilized with 0.1% Triton™ X-100 in PBS, for 20 min at RT. Next, cells were blocked in 1.5% NHS (normal horse serum) in PBS, for 1 h at RT, and incubated overnight with 1:1,000 Tuj-1 Alex 549-conjugated antibody (#801208, BioLegend, San Diego, CA, USA) in 1.5% NHS in PBS. After washing three times with PBS, cell nuclei were stained with 1:5,000 DAPI (4ʹ,6-diamidino-2-phenylindole, Thermo Fisher Scientific) in PBS, for 15 min at RT. The coverslips were mounted in mowiol, and left to dry for 24 h before imaging. Ten to fifteen images per condition, across triplicates, from different fields of view were taken on a fluorescence microscope Leica-DFC9000GTC (Leica) with 200 × magnification (20 × objective, 10 × intermediate magnification). Identical acquisition parameters were used for all images. Neurites density and arborization were quantified on TIFF exported images using the “neurite analyzer” plugin described before. The average value of the different view fields per experimental condition was taken and reported as fold change compared to the control (DMSO-treated) condition.

8-OHdG = test: Oxidative DNA damage marker 8-OHdG immunofluorescence; details: 48 h; for 8-OHdG reactivity: protective concentration of compound + 20 nM annonacin
Method: For immunostaining, cells were seeded in differentiation medium, on 24-well microplates containing PLO/FN-coated 13 mm Ø coverslips, and treated for 48 h as previously described. On the readout day, the medium was removed and cells were fixed, permeabilized and blocked as before. Primary antibody dilutions were made in 1.5% NHS in PBS (Supplementary Table S1) and incubated overnight at 4 °C. On the following day, the coverslips were washed three times with PBS and incubated with host-specific fluorescence secondary antibodies (Supplementary Table S1), for 2 h at RT, protected from light. After another three washes with PBS, cell nuclei were stained with 1:5,000 DAPI (4’,6-diamidino-2-phenylindole, Thermo Fisher Scientific) in PBS, for 15 min at RT. The coverslips were mounted in mowiol and left to dry for 24 h before imaging. Image acquisition for FI quantification was done with a 200 × magnification (20 × objective, 10 × intermediate magnification), or 400x (40 × objective, 10 × intermediate magnification) in the case of pSC-35 and AT8 immunostaining, on a fluorescence microscope Leica-DFC9000GTC (Leica). In the case of phospho-tau AT8, Z-stacks consisting of 18 plane images with a step size of 1 μm were acquired. The image acquisition parameters were identical for all conditions. Quantification of 8-OHdG (8-hydroxyguanosine) FI and tau species was performed using the ImageJ software. Ten-to-fifteen images per condition across triplicates, from different view fields, were used for this purpose. Briefly, TIFF exported images were submitted to background subtraction using the rolling ball method with a radius of 50 pixels. For 8-OHdG analysis, a channel-specific threshold was applied to all images to define the ROI and FI was measured and normalized to the cell number, determined by the DAPI channel. The average value of the different view fields per experimental condition was taken and reported as fold change compared to the control (DMSO-treated) condition. For the analysis of phospho-tau AT270 and pan-tau reactivity, channel specific thresholds were applied to all images. The DAPI channel was used to define nuclei from viable cells, by selecting particles with a size above 15 µm^2 and a circularity of 0.3–1.0. […] These masks were used to quantify the number of somas expressing each of these tau species, as well as the respective FI. The number of AT270-positive somas was divided by the number of pan-tau-positive somas and expressed as a percentage. […] For quantification of pSC-35 and AT8 speckle number and FI, we used CellProfiler™ 4 (https://cellprofiler.org/, Broad Institute Inc., Cambridge, MA, USA) speckle counting pipeline. […]

[1] = protective concentration of compound + 20 nM annonacin

Row | Compound | NQO1 mRNA expression (NQO1; absence of annonacin) | number of quadruple points (LUHMES cells; [1]) | total branch length (LUHMES cells; [1]) | 8-OHdG reactivity (8-OHdG) | NQO1 mRNA expression (NQO1; 20 nM annonacin alone (DMSO control condition) vs DMSO control without annonacin) | number of quadruple points (LUHMES cells; 20 nM annonacin alone) | total branch length (LUHMES cells; 20 nM annonacin alone) | increase of 8-OHdG reactivity (8-OHdG; 20 nM annonacin alone) | NQO1 mRNA expression (NQO1; presence of 20 nM annonacin, vs DMSO control under annonacin)
1 | Cn1c(Nc2nc3ccc(C(F)(F)F)cc3s2)nc2cc(C(=O)NCCOCCO)ccc21 [HPP-D] | fivefold | approximately 0.50 fold over control | significantly denser neural arborizations compared with the annonacin condition | small but significant reduction of 8-OHdG reactivity |  |  |  |  | 
2 | CCCCCCCCCCCC[C@@H](O)[C@H]1CC[C@H]([C@H](O)CCCC[C@H](O)CCCCC[C@@H](O)CC2=CC(C)OC2=O)O1 (some centres unmarked) [annonacin] |  |  |  |  | downregulation of both target-genes | 0.31 fold over control | 0.44 fold over control | 1.5 fold over control | 
3 | O=C1[C@H](CC[C@H](O)c2ccc(F)cc2)[C@@H](c2ccc(O)cc2)N1c1ccc(F)cc1 [ezetimibe] | did not induce significant changes | 0.71 fold over control | significantly denser neural arborizations compared with the annonacin condition | levels of oxidative DNA damage comparable to healthy control cells |  |  |  |  | did not induce significant changes
4 | C=CC(C)(C)c1cc(/C=C/C(=O)c2ccc(O)cc2)c(OC)cc1O [licochalcone A] | 2.5 fold over DMSO control | 0.81 fold over control | significantly denser neural arborizations compared with the annonacin condition | levels of oxidative DNA damage comparable to healthy control cells |  |  |  |  | 
